44 compounds from patent publication US20150004134A1, “TREATMENT OF CANCER WITH HETEROCYCLIC INHIBITORS OF GLUTAMINASE” (Calithera Biosciences, Inc., priority 2012, published 2015) can be followed below.

The test system of assay [1] is P493-6 (myc "on") cells. Kind of assay: Cell Proliferation Assay. The note with it: P493-6, 72 h, read-out: Cell prolif P493 72 h IC50, P493-6 cells, 72 h. In kind it is cell-based. The method, boiled down: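 Read-out: either Cell Titer Glo or Guava Viacount flow analysis after 72 h compound treatment of myc-on P493-6 cells (10,000/well, RPMI with 10% FBS) at 37 °C. DMSO held at 0.5% final.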

Assay [2] has as its target T1, recombinant form of Glutaminase 1 (GAC) (Homo sapiens, UniProt O94925).
T1 sequence (O94925 137-598 isoform O94925-3 limits assumed): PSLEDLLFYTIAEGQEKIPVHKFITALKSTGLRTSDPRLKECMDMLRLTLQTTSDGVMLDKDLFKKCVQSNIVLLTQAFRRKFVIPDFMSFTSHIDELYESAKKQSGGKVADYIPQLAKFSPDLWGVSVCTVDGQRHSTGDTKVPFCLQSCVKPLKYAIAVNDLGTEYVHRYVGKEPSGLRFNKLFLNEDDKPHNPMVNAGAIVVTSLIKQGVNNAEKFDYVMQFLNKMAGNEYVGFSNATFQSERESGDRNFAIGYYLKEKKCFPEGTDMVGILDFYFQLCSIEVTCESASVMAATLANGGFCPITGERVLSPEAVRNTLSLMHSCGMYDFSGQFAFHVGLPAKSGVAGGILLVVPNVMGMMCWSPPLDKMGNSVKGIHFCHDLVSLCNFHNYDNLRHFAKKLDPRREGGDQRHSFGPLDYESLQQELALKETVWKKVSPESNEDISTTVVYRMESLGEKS
Kind of assay: Recombinant Enzyme Assay - Time Dependence (60 min preincubation). It is filed as biochemical. Particulars: read-out: GAC Delta N2 IC50 60 min preinc. How it is done:
The enzyme/compound mix was sealed with sealing foil (USA Scientific) and allowed to incubate, with mild agitation, for 60 minutes at 20° C. Enzymatic reaction was started with the addition of 50 μL of substrate solution (50 mM Tris-HCl pH 8.0, 0.2 mM EDTA, 150 mM K2HPO4, 0.1 mg/ml BSA, 1 mM DTT, 20 mM L-glutamine, 2 mM NAD^+, and 10 ppm antifoam) and read in a Molecular Devices M5 plate reader at 20° C. The plate reader was configured to read absorbance (=340 nm) in kinetic mode for 15 minutes. Data was recorded as milli-absorbance units per minute and slopes were compared to a control compound and a DMSO-only control on the same plate. Compounds with slopes less than the DMSO control were considered inhibitors and plate variability was assessed using the control compound.

In the case of `COc1cc(CC(=O)Nc2nnc(CCCCc3ccc(NC(=O)Cc4ccccc4)nn3)s2)cc(OC)c1` [Compound 398], the figures for the IC50 in assay [1] and in assay [2] were 23 nM and 4 nM, respectively.
With `CC(C)(C)OC(=O)Nc1ccc(CC(=O)Nc2nnc(CCCCc3ccc(NC(=O)Cc4ccccc4)nn3)s2)cc1` [Compound 400], the IC50 was found to be 53 nM in assay [1] and 15 nM in assay [2].
For the compound `CC(C)(C)OC(=O)NCc1ccc(CC(=O)Nc2nnc(CCCCc3ccc(NC(=O)Cc4ccccc4)nn3)s2)cc1` [Compound 401], the values for the IC50 in assay [1] and in assay [2] were 11 nM and 5 nM, respectively.
`COc1cccc(C(OC(=O)CCN2CCOCC2)C(=O)Nc2nnc(CCCCc3ccc(NC(=O)Cc4ccccc4)nn3)s2)c1` (stereo not shown) [Compound 404]: the IC50 was determined as 22 nM in assay [1] and 60 nM in assay [2].
On to `CN(C)Cc1cccc(CC(=O)Nc2nnc(CCCCc3ccc(NC(=O)Cc4ccccc4)nn3)s2)c1` [Compound 406], for which the IC50 in assay [1] came to 270 nM; in assay [2], 16 nM.
Taken in the same sequence, the figures for `CNCc1cccc(CC(=O)Nc2nnc(CCCCc3ccc(NC(=O)Cc4ccccc4)nn3)s2)c1` [Compound 408] were 190 nM and 18 nM.
As to `Nc1ccc(CC(=O)Nc2nnc(CCCCc3ccc(NC(=O)Cc4ccccc4)nn3)s2)cc1` [Compound 410], the IC50 in assay [1] is 57 nM; in assay [2], 9 nM.
`CC(C)(C)OC(=O)NCc1cccc(CC(=O)Nc2nnc(CCCCc3ccc(N)nn3)s2)c1` [Compound 412]: the IC50 in assay [1] worked out at 110 nM; in assay [2], 28 nM.
For the compound `O=C(Cc1ccccc1)Nc1ccc(CCCCc2nnc(NC(=O)Cc3cccc(OC(F)(F)F)c3)s2)nn1` [Compound 413], the IC50 in assay [1] came to 45 nM; in assay [2], 7 nM.
For the compound `O=C(Cc1ccccc1)Nc1ccc(CCCCc2nnc(NC(=O)Cc3cc(F)cc(C(F)(F)F)c3)s2)nn1` [Compound 414], the IC50 in assay [1] stood at 58 nM; in assay [2] it was 10 nM.
`COc1cccc(CNC(=O)Nc2nnc(CCCCc3nnc(NC(=O)Cc4ccccc4)s3)s2)c1` [Compound 416]: the figures for the IC50 in assay [1] and in assay [2] were 350 nM and 55 nM, respectively.
Regarding `CCNC(=O)Nc1nnc(CCCCc2ccc(NC(=O)Cc3ccccc3)nn2)s1` [Compound 418], the values for the IC50 in assay [1] and in assay [2] were 320 nM and 140 nM, respectively.
In the case of `O=C(Cc1ccccc1)Nc1ccc(CCCCc2nnc(NC(=O)Nc3ccccc3)s2)nn1` [Compound 419], the IC50 in assay [1] amounted to 64 nM; in assay [2], 24 nM.
With `CCNC(=O)Nc1ccc(CCCCc2nnc(NC(=O)Cc3cccc(CN)c3)s2)nn1` [Compound 421], the IC50 worked out at 160 nM in assay [1] and 290 nM in assay [2].
With `NCc1cccc(CC(=O)Nc2nnc(CCCCc3ccc(NC(=O)C(O)c4cccc(Cl)c4)nn3)s2)c1` (stereo not shown) [Compound 423], the IC50 in assay [1] turned out to be 42 nM; in assay [2], 22 nM.
In the case of `CC(=O)Nc1ccc(CCCCc2nnc(NC(=O)Cc3cccc(CNC(=O)OC(C)(C)C)c3)s2)nn1` [Compound 424], the IC50 in assay [1] was found to be 8 nM; in assay [2], 6 nM.
On the same counts, the results for `CC(=O)Nc1ccc(CCCCc2nnc(NC(=O)Cc3cccc(CN)c3)s2)nn1` [Compound 425] are 15 nM and 86 nM.
As for `CC(C)(C)OC(=O)NCCc1cccc(CC(=O)Nc2nnc(CCCCc3ccc(NC(=O)Cc4ccccc4)nn3)s2)c1` [Compound 429], the IC50 in assay [1] was 7 nM; in assay [2] it was 4 nM.
As to `CN(C)CC(=O)Nc1ccc(CC(=O)Nc2nnc(CCCCc3ccc(NC(=O)Cc4ccccc4)nn3)s2)cc1` [Compound 430], the IC50 in assay [1] came out at 27 nM; in assay [2] it was 9 nM.
In the case of `CC(=O)NCc1cccc(CC(=O)Nc2nnc(CCCCc3ccc(NC(=O)Cc4ccccc4)nn3)s2)c1` [Compound 431], the results for the IC50 in assay [1] and in assay [2] were 26 nM and 7 nM, respectively.
Regarding `CC(C)CC(=O)NCc1cccc(CC(=O)Nc2nnc(CCCCc3ccc(NC(=O)Cc4ccccc4)nn3)s2)c1` [Compound 433], the IC50 came to 7 nM in assay [1] and 2 nM in assay [2].
`CN(C)CC(=O)NCc1cccc(CC(=O)Nc2nnc(CCCCc3ccc(NC(=O)Cc4ccccc4)nn3)s2)c1` [Compound 434]: the IC50 was 17 nM in assay [1] and 5 nM in assay [2].
Regarding `O=C(CN1CCOCC1)Nc1cccc(CC(=O)Nc2nnc(CCCCc3ccc(NC(=O)Cc4ccccc4)nn3)s2)c1` [Compound 440], the IC50 in assay [1] was determined as 31 nM; in assay [2], 8 nM.
Take `NCCc1cccc(CC(=O)Nc2nnc(CCCCc3ccc(NC(=O)Cc4ccccc4)nn3)s2)c1` [Compound 441]: the IC50 is 180 nM in assay [1] and 11 nM in assay [2].
Take `O=C(Cc1ccccc1)Nc1ccc(CCCCc2nnc(NC(=O)Cc3c(F)cccc3F)s2)nn1` [Compound 443]: the IC50 is 100 nM in assay [1] and 11 nM in assay [2].
As for `CN(Cc1cccc(CC(=O)Nc2nnc(CCCCc3ccc(NC(=O)Cc4ccccc4)nn3)s2)c1)C(=O)Cc1ccccc1` [Compound 444], the figures for the IC50 in assay [1] and in assay [2] were 8 nM and 3 nM, respectively.
On to `CC(=O)N(C)Cc1cccc(CC(=O)Nc2nnc(CCCCc3ccc(NC(=O)Cc4ccccc4)nn3)s2)c1` [Compound 445], for which the IC50 in assay [1] was 22 nM; in assay [2], 4 nM.
For `O=C(Cc1cccc(Cl)c1)Nc1ccc(CCCCc2nnc(NC(=O)C(OC(=O)Cc3cccc(Cl)c3)c3cccc(Cl)c3)s2)nn1` (stereo not shown) [Compound 449], the IC50 in assay [1] was 120 nM; in assay [2], 110 nM.
Taken in the same sequence, the figures for `O=C(Cc1ccccc1)Nc1ccc(CCCCc2nnc(NC(=O)Cc3cccc(Oc4ccccc4)c3)s2)nn1` [Compound 450] were 42 nM and 6 nM.
For `CC(=O)Nc1cccc(CC(=O)Nc2nnc(CCCCc3ccc(NC(=O)Cc4ccccc4)nn3)s2)c1` [Compound 451], the IC50 in assay [1] is 56 nM; in assay [2], 3 nM.
As for `CS(=O)(=O)NCc1cccc(CC(=O)Nc2nnc(CCCCc3ccc(NC(=O)Cc4ccccc4)nn3)s2)c1` [Compound 452], the results for the IC50 in assay [1] and in assay [2] were 49 nM and 4 nM, respectively.
With `CCNC(=O)NCc1cccc(CC(=O)Nc2nnc(CCCCc3ccc(NC(=O)Cc4ccccc4)nn3)s2)c1` [Compound 453], the values for the IC50 in assay [1] and in assay [2] were 15 nM and 3 nM, respectively.
As to `O=C(Cc1ccccc1)Nc1ccc(CCCCc2nnc(NC(=O)Cc3cccc(CCNC(=O)c4ccccc4)c3)s2)nn1` [Compound 455], the IC50 in assay [1] was found to be 12 nM; in assay [2] it was 3 nM.
As to `CCOC(=O)Cc1cccc(CC(=O)Nc2nnc(CCCCc3ccc(NC(=O)Cc4ccccc4)nn3)s2)c1` [Compound 456], the IC50 in assay [1] is 24 nM; in assay [2] it was 3 nM.
On to `CN(C)CC(=O)Nc1cccc(CC(=O)Nc2nnc(CCCCc3ccc(NC(=O)Cc4ccccc4)nn3)s2)c1` [Compound 457], for which the IC50 came to 110 nM in assay [1] and 9 nM in assay [2].
For `CC(=O)Nc1ccc(CCCCc2nnc(NC(=O)Cc3cccc(CNC(=O)c4ccccc4)c3)s2)nn1` [Compound 460], the IC50 stood at 31 nM in assay [1] and 5 nM in assay [2].
Regarding `CC(=O)Nc1ccc(CCCCc2nnc(NC(=O)Cc3cccc(CNC(=O)Cc4ccccc4)c3)s2)nn1` [Compound 462], the IC50 in assay [1] was 53 nM; in assay [2] it was 6 nM.
`Nc1ccc(CCCCc2nnc(NC(=O)Cc3cccc(CNC(=O)c4ccccc4)c3)s2)nn1` [Compound 463]: the IC50 was determined as 960 nM in assay [1] and 52 nM in assay [2].
Turning to `O=C(O)Cc1cccc(CC(=O)Nc2nnc(CCCCc3ccc(NC(=O)Cc4ccccc4)nn3)s2)c1` [Compound 465], the figures for the IC50 in assay [1] and in assay [2] were 920 nM and 6 nM, respectively.
In the case of `NCc1ccccc1CC(=O)Nc1nnc(CCCCc2ccc(NC(=O)Cc3ccccc3)nn2)s1` [Compound 466], the values for the IC50 in assay [1] and in assay [2] were 1300 nM and 51 nM, respectively.
As to `COc1ccccc1CC(=O)Nc1nnc(CCCCc2ccc(NC(=O)Cc3ccccc3)nn2)s1` [Compound 469], the values for the IC50 in assay [1] and in assay [2] were 49 nM and 7 nM, respectively.
`CC(C)CNC(=O)Cc1cccc(CC(=O)Nc2nnc(CCCCc3ccc(NC(=O)Cc4ccccc4)nn3)s2)c1` [Compound 470]: the IC50 in assay [1] came out at 9 nM; in assay [2], 3 nM.
Turning to `CC(C)(C)CNC(=O)Cc1cccc(CC(=O)Nc2nnc(CCCCc3ccc(NC(=O)Cc4ccccc4)nn3)s2)c1` [Compound 471], the results for the IC50 in assay [1] and in assay [2] were 6 nM and 3 nM, respectively.
Consider `O=C(Cc1ccccc1)Nc1ccc(CCCCc2nnc(NC(=O)Cc3cccc(CC(=O)N4CCCC4)c3)s2)nn1` [Compound 473], for which the IC50 in assay [1] came out at 6 nM; in assay [2], 2 nM.
